Laboratory results reported in patent US20190233899A1, “METHODS FOR SELECTING TREATMENT REGIMENS AND PREDICTING OUTCOMES IN CANCER PATIENTS” (BIOMEDICA DIAGNOSTICS INC., priority 2002, published 2019).

What was measured:
[1] = First study: Cox proportional hazards analysis of disease-free survival in primary breast cancer patients (n = 761, Munich); format: in vivo, human; details: primary breast cancer n = 761, median follow-up 48 months; therapy yes vs no
Description: The first study evaluated the clinical relevance of the combination of uPA and PAI-1 in 761 individual primary breast cancer patients (Table 3). Patients either underwent a modified radical mastectomy (n=389) or breast conserving surgery with subsequent breast irradiation (n=372) at the Department of Obstetrics and Gynecology, Technical University of Munich, Germany, between 1987 and 1998. Informed consent for analysis of tumor biological factors was obtained at primary surgery. Therapy decisions were based solely on consensus recommendations at the time but not on uPA and PAI-1. For 745 patients, information on adjuvant systemic therapy was available (Table 3). Median age of the patients at time of primary surgery was 56 years (range: 28-92 years). […] In addition to the collective as a whole, the subset of node-negative patients without adjuvant systemic therapy (n=269; median follow-up 60 months) was analyzed separately (Table 3). […]
In studies involving patients from Munich, uPA and PAI-1 antigen have been prospectively measured by ELISA (uPA: Imubind #894. PAI-1: Imubind #821; both from American Diagnostica Inc., Greenwich, Conn.) since 1987 in all primary breast cancer patients treated at our institution. […] The antigen levels in detergent extracts of breast cancer tissue are expressed as ng of analyte per mg of tissue protein. […]

[2] = Second study: Cox proportional hazards analysis of disease-free survival stratified by data set, primary breast cancer patients (Munich and Rotterdam, n = 3424); format: in vivo, human; details: for Hazard ratio (95% Confidence interval), multivariate Cox model (DFS), main effect: yes (1) vs. no (0)
Description: The second study involved a total of 3424 primary breast cancer patients from two different data sets. One set was collected from the Department of Obstetrics and Gynecology, Technical University of Munich, Germany, and the other was from the Department of Medical Oncology, Rotterdam Cancer Institute and University Hospital Rotterdam, the Netherlands. Patients had been treated for primary breast cancer between 1987 and 1999. Treatment decisions with regard to primary surgery and adjuvant systemic therapy were based primarily on consensus recommendations at the time. Treatment strategies differed between Munich and Rotterdam, particularly regarding administration of adjuvant systemic therapy to node-positive patients (Table 4b) (Harbeck et al., 2002, J. Clin. Oncology 20:1000-1009; Foekens et al., 2000, Cancer Res. 60:636-643). Of those patients treated by adjuvant chemotherapy, the majority received CMF (Rotterdam: 76%, Munich: 65%); about one-fifth in both collectives received anthracycline-containing regimens (Rotterdam: 24%, Munich: 21%); and the rest of the Munich patients were treated by other chemotherapy regimens. The endocrine treatment used in both collectives was tamoxifen.
Median age of the patients at time of primary surgery was 56 years (range: 22-94 years). Both data sets contained established clinical and histo-morphological factors such as number of involved axillary lymph nodes, pT stage, estrogen receptor status, progesterone receptor status, exposure to adjuvant chemotherapy (CT), adjuvant endocrine therapy (HT), or adjuvant radiotherapy (RT), as well as uPA and PAI-1 measurements. Since the scoring systems for assessment of grade differed substantially between the centers and could thus represent different biological tumor characteristics, grade was not included in the combined stratified analysis. The variables were re-coded as described below in Section 6.1.3. Patients with an uncertain number of affected lymph nodes were included for computing the univariate distributions of ranked variables but not in multivariate survival analysis. Forty-five Rotterdam patients with an uncertain number of affected lymph nodes and three Munich patients with missing information on chemotherapy were not included. At the time of primary therapy, no patient had any clinical or radiological evidence of distant metastases. Follow-up data were obtained at regular intervals. Median follow-up time of all patients still alive at time of analysis was 83 months (range: 1-183 months). Within the follow-up period, 1319 patients (39%) experienced disease recurrence and 1200 patients (35%) died.
In studies involving patients from Munich, uPA and PAI-1 antigen have been prospectively measured by ELISA (uPA: Imubind #894. PAI-1: Imubind #821; both from American Diagnostica Inc., Greenwich, Conn.) since 1987 in all primary breast cancer patients treated at our institution. (Jänicke et al., 1994, Cancer Res. 54: 2527-2530). The antigen levels in detergent extracts of breast cancer tissue are expressed as ng of analyte per mg of tissue protein. In the study involving Rotterdam patients, uPA and PAI-1 antigen were measured by ELISA, employing the same antibodies as above, in cytosol preparations of the primary tumor as described by Foekens et al., 2000, Cancer Res., 60:636-643.
Due to differences in measurement techniques between the Munich and Rotterdam data sets, data re-coding was required. For the laboratory measurements of uPA, PAI-1, Estrogen receptor, and progesterone receptor, fractional ranks were computed with respect to each distribution. Fractional ranks also keep the variables on a convenient scale from zero to one, thus facilitating comparison of the […] coefficients of different factors. In particular, ranked estrogen receptor and progesterone receptor measurements were included as continuous variables in the statistical models, even though biochemical and immunohistochemical assays were used. […]

CC/C(=C(\c1ccccc1)c1ccc(OCCN(C)C)cc1)c1ccccc1 [Adjuvant endocrine therapy, tamoxifen]
Disease-free survival (DFS) multivariate Relative risk (95% Confidence interval) [1]: 0.5 (0.3-0.7) | HR (DFS) of therapy, separate Cox model ([2]; 0-3 affected lymph nodes, high-uPA/PAI-1 subgroup n=1174): 0.51 (0.33-0.78) | 95% CI for the HR (DFS) of therapy, separate Cox model ([2]; 0-3 affected lymph nodes, low-uPA/PAI-1 group n=1418, not significant): 0.59-1.44 | HR (DFS) of therapy, separate Cox regression (2-stage model) ([2]; 4 or more affected nodes, low-uPA/PAI-1 subgroup): 0.62 (95% CI, 0.43-0.90) | HR (DFS) of therapy, separate Cox regression model ([2]; 4 or more nodes, high uPA/PAI-1): 0.68 (95% CI, 0.49-0.95) | Hazard ratio (95% Confidence interval), multivariate Cox model (DFS), main effect ([2]; all patients n = 3,376): 0.68 (0.56-0.82) | Hazard ratio (95% Confidence interval), multivariate Cox model (DFS), main effect ([2]; all patients n = 3,376, listed as HT): 0.68 | HR (DFS) due to therapy, separate multivariate Cox model ([2]; all patients, high-uPA/PAI-1 subgroup): 0.63 | HR (DFS) due to therapy, separate multivariate Cox model ([2]; all patients, low-uPA/PAI-1 subgroup): 0.74 | 95% CI for HR of interaction HT with uPA/PAI-1 (DFS) ([2]; all patients, no significant interaction): 0.66-1.28 | Hazard ratio (95% Confidence interval), multivariate Cox model (DFS), main effect ([2]; patients with 0-3 involved axillary nodes n = 2592): 0.66 (0.48-0.90) | Hazard ratio (95% Confidence interval), multivariate Cox model (DFS), main effect ([2]; patients with 4 or more involved axillary nodes n = 784): 0.68 (0.53-0.87)
